Measured values published in ChEMBL document CHEMBL1201862, “PubChem BioAssay data set” (2004).
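The compound was tested at five concentrations on cells cultured in 96-well plates, with a 48-hour exposure period. GI50 = concentration required for 50% inhibition of growth.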 Calls of active or inactive are those of the source. Rule as the data show it: active = GI50 up to about 1.1 µM and inactive = higher.

Assays:
Test in all cases: NCI anticancer screen, dose series, 48 h
OVCAR-8 = tested on: OVCAR-8
CCRF-CEM = tested on: CCRF-CEM
SR = tested on: SR
OVCAR-4 = tested on: OVCAR-4
BT-549 = tested on: BT-549
OVCAR-5 = tested on: OVCAR-5
EKVX = tested on: EKVX
MDA-N = tested on: MDA-N
SW-620 = tested on: SW-620
SF-295 = tested on: SF-295
HCT-116 = tested on: HCT-116
HT-29 = tested on: HT-29
RPMI-8226 = tested on: RPMI-8226
OVCAR-3 = tested on: OVCAR-3
TK-10 = tested on: TK-10
MDA-MB-435 = tested on: MDA-MB-435
SN12C = tested on: SN12C
IGROV-1 = tested on: IGROV-1
U-251 = tested on: U-251
UACC-257 = tested on: UACC-257

Measured: GI50

N#Cc1cccc(N2C(=O)C3C4C=CC(C3C2=O)C2C(=O)N(c3cccc(C#N)c3)C(=O)C42)c1 (stereo not given)
inactive: OVCAR-8 37.8 µM | CCRF-CEM 44.8 µM | SR 37.6 µM | OVCAR-4 > 63.1 µM | BT-549 17.7 µM | OVCAR-5 > 63.1 µM | EKVX > 100 µM | MDA-N > 100 µM | SW-620 > 100 µM | SF-295 17.1 µM | HCT-116 21 µM | HT-29 > 63.1 µM | RPMI-8226 > 56.2 µM | OVCAR-3 > 77.3 µM | TK-10 26.5 µM | MDA-MB-435 > 100 µM | SN12C > 39.8 µM | IGROV-1 29.7 µM | U-251 10.1 µM | UACC-257 > 63.1 µM

CC(C)=CC[C@]12CCN[C@H]1N(S(=O)(=O)c1ccccc1)c1ccccc12
inactive: OVCAR-8 16.8 µM | CCRF-CEM 23.6 µM | SR 18.3 µM | OVCAR-4 14.3 µM | BT-549 17.1 µM | OVCAR-5 > 100 µM | EKVX 8.17 µM | MDA-N 15.2 µM | SW-620 18.4 µM | SF-295 14.8 µM | HCT-116 14.4 µM | HT-29 18.5 µM | RPMI-8226 18.3 µM | OVCAR-3 16.9 µM | TK-10 34.9 µM | MDA-MB-435 16.3 µM | SN12C 13.6 µM | IGROV-1 10.6 µM | U-251 16 µM | UACC-257 17.6 µM

CCN(CC)c1ccc(/C=C/C2=NN(c3cccc(S(=O)(=O)O)c3)C3(C2)C(Cl)C(=O)N3c2nc3ccccc3s2)cc1 (stereo not given)
inactive: OVCAR-8 8.99 µM | CCRF-CEM 1.83 µM | SR 2.47 µM | OVCAR-4 4.89 µM | BT-549 9.25 µM | OVCAR-5 23.1 µM | EKVX 8.79 µM | MDA-N 12.4 µM | SW-620 10.2 µM | SF-295 13.3 µM | HCT-116 10.5 µM | HT-29 13.8 µM | RPMI-8226 2.32 µM | OVCAR-3 4.11 µM | TK-10 4.95 µM | MDA-MB-435 5.87 µM | SN12C 8.18 µM | IGROV-1 4.88 µM | U-251 3.4 µM | UACC-257 7.24 µM

CC1=C(C#N)C2C(=C(N)Oc3ccccc32)C(N)=N1 (stereo not given)
inactive: OVCAR-8 25.1 µM | CCRF-CEM 30.1 µM | SR 40.8 µM | OVCAR-4 32.8 µM | BT-549 32 µM | OVCAR-5 24.8 µM | EKVX 25.4 µM | MDA-N 21.8 µM | SW-620 32.9 µM | SF-295 26.9 µM | HCT-116 24.4 µM | HT-29 27.2 µM | RPMI-8226 24 µM | OVCAR-3 44.8 µM | TK-10 21.1 µM | MDA-MB-435 27.7 µM | SN12C 23.7 µM | IGROV-1 25.4 µM | U-251 34 µM | UACC-257 20.1 µM

Cn1c2ccc3cc2c(=S)c2cc(ccc21)OCCOCCOCCOCCOCCO3
inactive: OVCAR-8 > 10 µM | CCRF-CEM > 10 µM | SR > 10 µM | OVCAR-4 > 10 µM | BT-549 > 10 µM | OVCAR-5 > 10 µM | EKVX > 10 µM | MDA-N > 10 µM | SW-620 > 10 µM | SF-295 > 10 µM | HCT-116 > 10 µM | HT-29 > 10 µM | RPMI-8226 > 10 µM | OVCAR-3 > 10 µM | TK-10 > 10 µM | MDA-MB-435 > 10 µM | SN12C > 10 µM | IGROV-1 > 10 µM | U-251 > 10 µM | UACC-257 > 10 µM

Cn1c(=S)[nH]c(N)c(Cc2ccccc2)c1=O
inactive: OVCAR-8 93.8 µM | CCRF-CEM > 100 µM | SR 67.5 µM | OVCAR-4 > 100 µM | BT-549 > 100 µM | OVCAR-5 > 100 µM | EKVX 92.5 µM | MDA-N > 100 µM | SW-620 > 100 µM | SF-295 > 100 µM | HCT-116 > 100 µM | HT-29 77.8 µM | RPMI-8226 > 100 µM | OVCAR-3 > 100 µM | TK-10 81.8 µM | MDA-MB-435 > 100 µM | SN12C > 100 µM | IGROV-1 21.2 µM | U-251 > 100 µM | UACC-257 > 100 µM

Oc1cc(-c2ccc(F)cc2)nc2ncc(Cl)cc12
inactive: OVCAR-8 38.5 µM | CCRF-CEM 18.7 µM | SR 3.09 µM | OVCAR-4 > 77.3 µM | BT-549 > 100 µM | OVCAR-5 55.3 µM | EKVX 30.3 µM | MDA-N 2.94 µM | SW-620 11.1 µM | SF-295 18.1 µM | HCT-116 9.51 µM | HT-29 26.5 µM | RPMI-8226 19 µM | OVCAR-3 20.6 µM | TK-10 > 83.4 µM | MDA-MB-435 2.82 µM | SN12C > 84.1 µM | IGROV-1 17.1 µM | U-251 21.7 µM | UACC-257 > 68.9 µM
